Test results reported in publication PMC7988358, “Characterization of GMPP from Dendrobium huoshanense yielding GDP-D-mannose” (Open Life Sciences, 2021).

Biological target: T1, DhGMPP (Dendrobium huoshanense, UniProt A0A348HAW3)
T1 construct: gene GMPP; E. coli BL21-AI crude soluble extract, not purified
T1 sequence (A0A348HAW3 1-415): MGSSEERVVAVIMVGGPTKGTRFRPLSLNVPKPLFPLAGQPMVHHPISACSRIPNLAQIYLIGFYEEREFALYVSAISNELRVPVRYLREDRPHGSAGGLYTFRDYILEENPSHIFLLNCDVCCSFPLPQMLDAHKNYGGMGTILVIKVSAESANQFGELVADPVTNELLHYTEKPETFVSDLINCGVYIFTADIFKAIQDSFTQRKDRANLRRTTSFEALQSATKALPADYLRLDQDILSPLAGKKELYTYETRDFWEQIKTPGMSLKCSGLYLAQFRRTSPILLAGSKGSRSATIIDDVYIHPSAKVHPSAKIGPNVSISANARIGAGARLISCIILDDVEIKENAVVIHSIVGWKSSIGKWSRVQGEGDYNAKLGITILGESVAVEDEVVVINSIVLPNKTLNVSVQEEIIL
Test: HPLC ([…] nm) detection of GDP-mannose formed
Assay type: biochemical
Settings: 2.5 mM GTP, 5 mM MgCl2, 50 mM Tris-HCl pH 7.4, 37 °C, 10 min, crude E. coli extract, untransformed-host extract and boiled protein as controls

| SMILES | HPLC (254 nm) detection of GDP-mannose formed (5 mM α-D-mannose-phosphate) | HPLC (254 nm) detection of GDP-mannose formed (5 mM substrate) |
| --- | --- | --- |
| Nc1nc2c(ncn2[C@@H]2O[C@H](COP(=O)(O)OP(=O)(O)OP(=O)(O)O)[C@@H](O)[C@H]2O)c(=O)[nH]1 [GTP] | By utilizing GTP and α-D-mannose-phosphate as substrates, DhGMPP catalyzes the reaction to yield GDP-mannose | – |
| O=P(O)(O)O[C@H]1O[C@H](CO)[C@@H](O)[C@H](O)[C@@H]1O [α-D-mannose-phosphate] | – | By utilizing GTP and α-D-mannose-phosphate as substrates, DhGMPP catalyzes the reaction to yield GDP-mannose |
